Laboratory results: ChEMBL document CHEMBL4808232, “Discovery of IDO1 inhibitors containing a decahydroquinoline, decahydro-1,6-naphthyridine, or octahydro-1H-pyrrolo[3,2-c]pyridine scaffold” (Bioorg Med Chem Lett, 2021)
The source made the active and inactive calls. No cut-off for these calls is given here.

Key:
[1] = biological target: T1, Indoleamine 2,3-dioxygenase 1 (Homo sapiens, UniProt P14902); assay: Inhibition of IDO1 in human HeLa cells assessed as production of N-formylkynurenine using tryptophan as substrate in presence of inactivated fetal bovine serum; format: cell-based
T1 sequence (P14902 whole entry): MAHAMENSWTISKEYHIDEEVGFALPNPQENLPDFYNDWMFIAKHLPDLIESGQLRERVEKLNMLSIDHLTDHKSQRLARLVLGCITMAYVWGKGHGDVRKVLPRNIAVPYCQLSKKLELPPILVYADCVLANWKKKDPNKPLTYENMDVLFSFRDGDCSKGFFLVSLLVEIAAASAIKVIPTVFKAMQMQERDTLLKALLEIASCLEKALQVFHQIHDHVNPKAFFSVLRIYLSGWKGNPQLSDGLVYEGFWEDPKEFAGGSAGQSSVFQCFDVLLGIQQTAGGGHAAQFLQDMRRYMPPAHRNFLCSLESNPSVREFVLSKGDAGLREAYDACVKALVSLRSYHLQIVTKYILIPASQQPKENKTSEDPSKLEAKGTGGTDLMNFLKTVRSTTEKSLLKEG

[2] = biological target: T1, Indoleamine 2,3-dioxygenase 1; assay: Inhibition of IDO1 in human whole blood; format: tissue-based
[3] = biological target: Tryptophan 2,3-dioxygenase (Homo sapiens) (UniProt P48775); assay: Inhibition of TDO in human SW48 cells; format: cell-based
Sequence of Tryptophan 2,3-dioxygenase (Homo sapiens) (P48775 whole entry, looked up): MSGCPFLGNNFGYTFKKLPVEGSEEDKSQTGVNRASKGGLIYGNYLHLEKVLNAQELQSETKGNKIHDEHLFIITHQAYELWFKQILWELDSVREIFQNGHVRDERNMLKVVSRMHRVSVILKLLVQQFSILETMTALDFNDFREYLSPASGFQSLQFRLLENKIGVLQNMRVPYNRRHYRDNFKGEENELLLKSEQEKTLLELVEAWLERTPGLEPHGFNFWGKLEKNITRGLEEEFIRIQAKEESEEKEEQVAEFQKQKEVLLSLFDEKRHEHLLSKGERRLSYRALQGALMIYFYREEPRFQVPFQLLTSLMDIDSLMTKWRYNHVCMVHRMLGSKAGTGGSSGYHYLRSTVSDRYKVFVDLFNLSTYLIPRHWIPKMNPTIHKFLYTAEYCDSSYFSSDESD

[4] = Unbound clearance in male Wistar Han rat at 0.05 mg/kg, iv; format: ADME, organism-based; details: in vivo
[5] = MRT in male Wistar Han rat at 0.05 mg/kg, iv; format: ADME, organism-based; details: in vivo
[6] = male, Wistar Han, read-out: MRT

Molecule `CC(C(=O)Nc1ccc(Cl)cc1)N1CCC2C(CCN2C(=O)OC2CC2)C1` (stereo in doubt; 40) has an IC50 [1] of 1150 nM.

Work on `Cc1nccc(N2CCCC3CC(C4(C(=O)Nc5ccc(F)cc5)CCC4)CCC32)n1` (stereo in doubt; 17) [listing 1 of 2 here] yielded an IC50 [1] of 32 nM.

`CC(C(=O)Nc1ccc(Cl)cc1)N1CCC2C(CCCN2C(=O)OC2CC2)C1` (stereo in doubt; 25) gave an IC50 [1] of 3.7 nM and an IC50 [2] of 293 nM.

For `O=C(C1CC1)N1CCCC2CC(C3(C(=O)Nc4ccc(F)cc4)CCC3)CCC21` (stereo in doubt; 12), the inhibition [3] was “inactive”.

In the case of `O=C(Nc1ccc(F)cc1)C1(C2CCC3C(CCCN3c3ccnc(C(F)(F)F)n3)C2)CCC1` (stereo in doubt; 19) [listing 1 of 2 here], the IC50 [1] is reported as 1.9 nM, the CL free [4] is reported as 13321 mL/min/kg and the MRT [5, 6] is reported as 1.9 h.

Work on `Cc1nccc(-n2ncc3c2CCN(C(C)C(=O)Nc2ccc(Cl)cc2)C3)n1` (stereo in doubt; 42) yielded an IC50 [1] of 27700 nM.

`Cc1nccc(-n2ncc3c2CCN(C(C)C(=O)Nc2ccc(Cl)cc2)C3)n1` (stereo in doubt; 41) showed an IC50 [1] of 1050 nM.

For `Cc1nccc(N2CCCC3CN(C(C)C(=O)Nc4ccc(Cl)cc4)CCC32)n1` (stereo in doubt; 31), the IC50 [1] was 2.9 nM and the IC50 [2] was 130 nM.

With `Cc1nccc(N2CCCC3CC(C4(C(=O)Nc5ccc(F)cc5)CCC4)CCC32)n1` (stereo in doubt; 18) [listing 1 of 2 here] the IC50 [1] was 5.2 nM.

In the case of `C[C@@H](C(=O)Nc1ccc(F)cc1)C1CCC2C(CCCN2C(=O)c2cccc(Cl)c2)C1` (stereo in doubt; 6) [listing 1 of 2 here], the inhibition [3] is reported as “inactive”.

In the case of `O=C(C1CC1)N1CCCC2CC(C3(C(=O)Nc4ccc(F)cc4)CCC3)CCC21` (stereo in doubt; 13) [listing 1 of 2 here], the inhibition [3] is reported as “inactive”.

In the case of `O=C(C1CC1)N1CCCC2CC(C3(C(=O)Nc4ccc(F)cc4)CCC3)CCC21` (stereo in doubt; 13) [listing 2 of 2 here], the IC50 [1] is reported as 19 nM.

With `CC(C(=O)Nc1ccc(Cl)cc1)N1CCC2C(CCN2C(=O)OC2CC2)C1` (stereo in doubt; 38) the IC50 [1] was 16 nM, the CL free [4] was 2394 mL/min/kg and the MRT [5, 6] was 1.5 h.

`O=C(C1CC1)N1CCCC2CC(C3(C(=O)Nc4ccc(F)cc4)CCC3)CCC21` (stereo in doubt; 14) [listing 1 of 2 here] gave an IC50 [1] of 115 nM.

With `O=C(c1cccc(Cl)c1)N1CCCC2CC(C3(C(=O)Nc4ccc(F)cc4)CCC3)CCC21` (stereo in doubt; 9) [listing 1 of 2 here] the inhibition [3] was “inactive”.

For `O=C(C1CC1)N1CCCC2CC(C3(C(=O)Nc4ccc(F)cc4)CCC3)CCC21` (stereo in doubt; 11) [listing 1 of 2 here], the inhibition [3] was “inactive”.

Work on `CC(C(=O)Nc1ccc(Cl)cc1)N1CCC2C(CCN2C(=O)OC2CC2)C1` (stereo in doubt; 39) yielded an IC50 [1] of 184 nM, a CL free [4] of 664 mL/min/kg and an MRT ([5]; 0.05 mg/kg) of 2.8 h.

With `O=C(c1cccc(Cl)c1)N1CCCC2CC(C3(C(=O)Nc4ccc(F)cc4)CCC3)CCC21` (stereo in doubt; 8) [listing 1 of 2 here] the inhibition [3] was “inactive”.

For `O=C(c1cccc(Cl)c1)N1CCCC2CC(C3(C(=O)Nc4ccc(F)cc4)CCC3)CCC21` (stereo in doubt; 9) [listing 2 of 2 here], the IC50 [1] was 7 nM.

Molecule `Cc1nccc(N2CCCC3CN(C(C)C(=O)Nc4ccc(Cl)cc4)CCC32)n1` (stereo in doubt; 29) has an IC50 [1] of 302 nM.

With `O=C(Nc1ccc(F)cc1)C1(C2CCC3C(CCCN3c3ccnc(C(F)(F)F)n3)C2)CCC1` (stereo in doubt; 22) [listing 1 of 2 here] the inhibition [3] was “inactive”.

For `O=C(Nc1ccc(F)cc1)C1(C2CCC3C(CCCN3c3ccnc(C(F)(F)F)n3)C2)CCC1` (stereo in doubt; 19) [listing 2 of 2 here], the inhibition [3] was “inactive”.

`O=C(c1cccc(Cl)c1)N1CCCC2CC(C3(C(=O)Nc4ccc(F)cc4)CCC3)CCC21` (stereo in doubt; 10) [listing 1 of 2 here] gave an IC50 [1] of 14 nM.

Molecule `O=C(CN1CCC2C(CCCN2C(=O)c2cccc(Cl)c2)C1)Nc1ccc(F)cc1` (stereo in doubt; 23) has an IC50 [1] of 3.9 nM.

In the case of `Cc1nccc(N2CCCC3CC(C4(C(=O)Nc5ccc(F)cc5)CCC4)CCC32)n1` (stereo in doubt; 16) [listing 1 of 2 here], the IC50 [1] is reported as 4.2 nM, the CL free [4] is reported as 1884 mL/min/kg and the MRT ([5]; 0.05 mg/kg) is reported as 1.8 h.

For `C[C@@H](C(=O)Nc1ccc(F)cc1)C1CCC2C(CCCN2C(=O)c2cccc(Cl)c2)C1` (stereo in doubt; 4) [listing 1 of 2 here], the inhibition [3] was “inactive”.

For `Cc1nccc(N2CCCC3CN(C(C)C(=O)Nc4ccc(Cl)cc4)CCC32)n1` (stereo in doubt; 30), the IC50 [1] was 40 nM.

With `Cc1nccc(N2CCCC3CC(C4(C(=O)Nc5ccc(F)cc5)CCC4)CCC32)n1` (stereo in doubt; 16) [listing 2 of 2 here] the inhibition [3] was “inactive”.

Work on `O=C(Nc1ccc(F)cc1)C1(C2CCC3C(CCCN3c3ccnc(C(F)(F)F)n3)C2)CCC1` (stereo in doubt; 21) [listing 1 of 2 here] yielded an IC50 [1] of 2.6 nM, a CL free [4] of 7183 mL/min/kg and an MRT ([5]; 0.05 mg/kg) of 2.9 h.

With `C[C@@H](C(=O)Nc1ccc(F)cc1)C1CCC2C(CCCN2C(=O)c2cccc(Cl)c2)C1` (stereo in doubt; 5) the inhibition [3] was “inactive”.

For `O=C(c1cccc(Cl)c1)N1CCCC2CC(C3(C(=O)Nc4ccc(F)cc4)CCC3)CCC21` (stereo in doubt; 10) [listing 2 of 2 here], the inhibition [3] was “inactive”.

`O=C(Nc1ccc(F)cc1)C1(C2CCC3C(CCCN3c3ccnc(C(F)(F)F)n3)C2)CCC1` (stereo in doubt; 22) [listing 2 of 2 here] gave an IC50 [1] of 3.2 nM, a CL free [4] of 5951 mL/min/kg and an MRT ([5]; 0.05 mg/kg) of 3.5 h.

For `O=C(c1cccc(Cl)c1)N1CCCC2CC(C3(C(=O)Nc4ccc(F)cc4)CCC3)CCC21` (stereo in doubt; 7), the inhibition [3] was “inactive”.

`CC(C(=O)Nc1ccc(Cl)cc1)N1CCC2C(CCCN2C(=O)OC2CC2)C1` (stereo in doubt; 26) gave an IC50 [1] of 9.1 nM.

For `O=C(Nc1ccc(F)cc1)C1(C2CCC3C(CCCN3c3ccnc(C(F)(F)F)n3)C2)CCC1` (stereo in doubt; 20), the inhibition [3] was “inactive”.

Molecule `O=C(C1CC1)N1CCCC2CC(C3(C(=O)Nc4ccc(F)cc4)CCC3)CCC21` (stereo in doubt; 11) [listing 2 of 2 here] has an IC50 [1] of 107 nM.

For `O=C(C1CC1)N1CCCC2CC(C3(C(=O)Nc4ccc(F)cc4)CCC3)CCC21` (stereo in doubt; 14) [listing 2 of 2 here], the inhibition [3] was “inactive”.

In the case of `C[C@@H](C(=O)Nc1ccc(F)cc1)C1CCC2C(CCCN2C(=O)c2cccc(Cl)c2)C1` (stereo in doubt; 3), the inhibition [3] is reported as “inactive”.

For `Cc1nccc(N2CCCC3CC(C4(C(=O)Nc5ccc(F)cc5)CCC4)CCC32)n1` (stereo in doubt; 18) [listing 2 of 2 here], the inhibition [3] was “inactive”.

For `Cc1nccc(N2CCCC3CC(C4(C(=O)Nc5ccc(F)cc5)CCC4)CCC32)n1` (stereo in doubt; 15), the inhibition [3] was “inactive”.

`CC(C(=O)Nc1ccc(Cl)cc1)N1CCC2C(CCCN2c2ccnc(C(F)(F)F)n2)C1` (stereo in doubt; 35) gave an IC50 [1] of 430 nM.

`O=C(c1cccc(Cl)c1)N1CCCC2CC(C3(C(=O)Nc4ccc(F)cc4)CCC3)CCC21` (stereo in doubt; 8) [listing 2 of 2 here] gave an IC50 [1] of 3 nM.

Work on `C[C@@H](C(=O)Nc1ccc(F)cc1)C1CCC2C(CCCN2C(=O)c2cccc(Cl)c2)C1` (stereo in doubt; 4) [listing 2 of 2 here] yielded an IC50 [1] of 1.9 nM.

For `O=C(Nc1ccc(F)cc1)C1(C2CCC3C(CCCN3c3ccnc(C(F)(F)F)n3)C2)CCC1` (stereo in doubt; 21) [listing 2 of 2 here], the inhibition [3] was “inactive”.

Work on `CC(C(=O)Nc1ccc(Cl)cc1)N1CCC2C(CCCN2C(=O)OC2CC2)C1` (stereo in doubt; 28) yielded an IC50 [1] of 32 nM.

`CC(C(=O)Nc1ccc(Cl)cc1)N1CCC2C(CCN2C(=O)OC2CC2)C1` (stereo in doubt; 37) showed an IC50 [1] of 11 nM.

In the case of `Cc1nccc(N2CCCC3CC(C4(C(=O)Nc5ccc(F)cc5)CCC4)CCC32)n1` (stereo in doubt; 17) [listing 2 of 2 here], the inhibition [3] is reported as “inactive”.

Work on `C[C@@H](C(=O)Nc1ccc(F)cc1)C1CCC2C(CCCN2C(=O)c2cccc(Cl)c2)C1` (stereo in doubt; 6) [listing 2 of 2 here] yielded an IC50 [1] of 2.3 nM, a CL free [4] of 4484 mL/min/kg and an MRT ([5]; 0.05 mg/kg) of 1.1 h.
